Type in all cases: in vivo
In assay [1] the test system is lambsquarter (Chenopodium album). As to the kind of experiment: Postemergence herbicidal activity. The settings on record: post-emergent, 140 g ai/ha, after 14 days; for pest or weed control at 140 g/ha: Chenopodium album, post-emergence, 336 h, read-out: % Control CHEAL. The procedure, abridged: (§1)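 Plants grown 7-21 days in greenhouse (about 15 h photoperiod, 23-29° C day, 22-28° C night) to first or second true leaf stage. Compounds in acetone/water/isopropanol/DMSO carrier with crop oil concentrate and Triton X-155 sprayed overhead at 187 L/ha; controls received solvent blank. Plants sub-irrigated afterwards; dose responses analysed by probit analysis.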

Assay [2] deals with redroot pigweed (Amaranthus retroflexus). As to the kind of experiment: Postemergence herbicidal activity. Conditions: post-emergent, 140 g ai/ha, after 14 days; for pest or weed control at 140 g/ha: Amaranthus retroflexus, post-emergence, 336 h, read-out: % Control AMARE. The procedure, abridged:
as §1

Assay [3] concerns velvetleaf (Abutilon theophrasti). As to the kind of experiment: Postemergence herbicidal activity. The settings on record: post-emergent, 140 g ai/ha, after 14 days; for pest or weed control at 140 g/ha: Abutilon theophrasti, post-emergence, 336 h, read-out: % Control ABUTH. The procedure, abridged: as §1
Another assay has as its system Galium aparine. As to the kind of experiment: Postemergence herbicidal activity in cereal crops. Conditions: Galium aparine, post-emergence, 480 h, post-emergent, after 20-22 days, read-out: % Control GALAP; for pest or weed control at 17.5 g/ha: 17.5 g ai/ha; for pest or weed control at 35 g/ha: 35 g ai/ha. The procedure, abridged:
(§2)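 Plants are raised in a greenhouse for 7-36 days and used at the second to third true leaf stage. Compounds in a mixed organic–aqueous carrier with crop oil and surfactant are sprayed postemergence at 187 L/ha. Treated plants return to the greenhouse with sub-irrigation, alongside blank-sprayed controls.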

The test system of another assay is Lamium purpureum. As to the kind of experiment: Postemergence herbicidal activity in cereal crops. Conditions: Lamium purpureum, post-emergence, 480 h, post-emergent, after 20-22 days, read-out: % Control LAMPU; for pest or weed control at 17.5 g/ha: 17.5 g ai/ha; for pest or weed control at 35 g/ha: 35 g ai/ha. The procedure, abridged: as §2
A further assay concerns Papaver rhoeas. As to the kind of experiment: Postemergence herbicidal activity in cereal crops. The settings on record: Papaver rhoeas, post-emergence, 480 h, post-emergent, after 20-22 days, read-out: % Control PAPRH; for pest or weed control at 17.5 g/ha: 17.5 g ai/ha; for pest or weed control at 35 g/ha: 35 g ai/ha. The procedure, abridged: as §2
The subject of another assay is Veronica persica. As to the kind of experiment: Postemergence herbicidal activity in cereal crops. The settings on record: Veronica persica, post-emergence, 480 h, post-emergent, after 20-22 days, read-out: % Control VERPE; for pest or weed control at 17.5 g/ha: 17.5 g ai/ha; for pest or weed control at 35 g/ha: 35 g ai/ha. The procedure, abridged: as §2
Another assay deals with barley (Hordeum vulare). As to the kind of experiment: Postemergence herbicidal activity in cereal crops. Conditions: Hordeum, post-emergence, 480 h, crop, post-emergent, after 20-22 days, read-out: % Control HORVS; for pest or weed control at 17.5 g/ha: 17.5 g ai/ha; for pest or weed control at 35 g/ha: 35 g ai/ha. The procedure, abridged:
as §2

In assay [4] the test system is wheat (Triticum aestivum). As to the kind of experiment: Postemergence herbicidal activity in cereal crops. Conditions: Triticum aestivum, post-emergence, 480 h, crop, post-emergent, after 20-22 days, read-out: % Control TRZAS; for plant injury at 17.5 g/ha: 17.5 g ai/ha; for plant injury at 35 g/ha: 35 g ai/ha. The procedure, abridged:
as §2

`COC(=O)c1nc(-c2c(F)cc(Br)c(OC)c2F)cc(N)c1Cl` [Compound 77, 4-Amino-6-(4-bromo-2,6-difluoro-3-methoxyphenyl)-3-chloropyridine-2-carboxylic acid, methyl ester]: the pest or weed control at 140 g/ha in [1], in [2] and in assay [3] was 100% each time. The pest or weed control at 17.5 g/ha with Galium aparine stood at 99%; with Lamium purpureum, 100%; in the assay with Papaver rhoeas, 99%; in the assay on Veronica persica it was 65%; in the assay with barley (Hordeum vulare), 0%. Moreover, the plant injury at 17.5 g/ha in [4] was determined as 0%.

Regarding `COc1c(Cl)ccc(-c2cc(N)c(Cl)c(C(=O)O)n2)c1Cl` [Compound 103, 4-Amino-3-chloro-6-(2,4-dichloro-3-methoxyphenyl)pyridine-2-carboxylic acid], in [1], the “% Control CHEAL” value came out at 100%. Further, in [2], the “% Control AMARE” value is recorded as 100%. Moreover, the “% Control ABUTH” value in [3] amounted to 95%. Besides, the pest or weed control at 35 g/ha in the assay on Galium aparine amounted to 60%; in the assay with Lamium purpureum, 95%; in the assay on Papaver rhoeas, 100%; in the assay on Veronica persica, 75%; in the assay with barley (Hordeum vulare) it was 0%. Also, the plant injury at 35 g/ha in assay [4] came out at 0%.

With `COC(=O)c1nc(-c2ccc(Cl)c(OC)c2Cl)cc(N)c1Cl` [Compound 44, 4-Amino-3-chloro-6-(2,4-dichloro-3-methoxyphenyl)pyridine-2-carboxylic acid methyl ester], the pest or weed control at 140 g/ha in assay [1], in [2] and in [3] was 100% throughout. The pest or weed control at 35 g/ha came out at 65% with Galium aparine; 99% in the assay with Lamium purpureum; 90% with Papaver rhoeas; 60% in the assay with Veronica persica; 5% in the assay on barley (Hordeum vulare). The plant injury at 35 g/ha in assay [4] is 10%.

For the compound `COC(=O)c1nc(-c2c(F)cc(Cl)c(OC)c2F)cc(N)c1Cl` [Compound 58, 4-Amino-3-chloro-6-(4-chloro-2,6-difluoro-3-methoxyphenyl)pyridine-2-carboxylic acid, methyl ester], the pest or weed control at 140 g/ha in assay [1], in assay [2] and in assay [3] was 100% each time. The pest or weed control at 17.5 g/ha with Galium aparine was 100%; in the assay with Lamium purpureum, 100%; in the assay on Papaver rhoeas, 99%; in the assay with Veronica persica, 60%; with barley (Hordeum vulare) it was 0%. The plant injury at 17.5 g/ha in assay [4] amounted to 0%.

For `COC(=O)c1nc(-c2ccc(Br)c(OC)c2F)cc(N)c1Cl` [Compound 27, 4-amino-6-(4-bromo-2-fluoro-3-methoxyphenyl)-3-chloro-pyridine-2-carboxylic acid methyl ester], the figures for the pest or weed control at 140 g/ha in [1], in assay [2] and in assay [3] were 100%, 90% and 100%, respectively. Also, the pest or weed control at 17.5 g/ha came to 99% in the assay with Galium aparine; 100% in the assay on Lamium purpureum; 100% in the assay with Papaver rhoeas; 50% with Veronica persica; 5% with barley (Hordeum vulare). For the same compound, in [4], the plant injury at 17.5 g/ha came to 5%.

In the case of `COc1c(Cl)ccc(-c2cc(N)c(Cl)c(C(=O)O)n2)c1F` [Compound 100, 4-Amino-3-chloro-6-(4-chloro-2-fluoro-3-methoxyphenyl)pyridine-2-carboxylic acid], the pest or weed control at 140 g/ha in [1], in [2] and in assay [3] was 100% each time. The pest or weed control at 17.5 g/ha in the assay on Galium aparine stood at 90%; in the assay on Lamium purpureum, 100%; in the assay on Papaver rhoeas, 95%; in the assay on Veronica persica it was 65%; in the assay with barley (Hordeum vulare), 5%. Besides, the plant injury at 17.5 g/ha in assay [4] is 10%.

Consider `COC(=O)c1nc(-c2ccc(Cl)c(OC)c2F)cc(N)c1Cl` [Compound 42, 4-Amino-3-chloro-6-(4-chloro-2-fluoro-3-methoxyphenyl)pyridine-2-carboxylic acid methyl ester], for which the pest or weed control at 140 g/ha in [1], in assay [2] and in assay [3] was 100% throughout. Further, the pest or weed control at 17.5 g/ha turned out to be 99% with Galium aparine; 100% in the assay with Lamium purpureum; 99% with Papaver rhoeas; 60% in the assay on Veronica persica; 5% in the assay with barley (Hordeum vulare). For the same compound, the plant injury at 17.5 g/ha in [4] turned out to be 5%.

For `COC(=O)c1nc(-c2ccc(F)c(OC)c2F)cc(N)c1Cl` [Compound 70, 4-Amino-3-chloro-6-(2,4-difluoro-3-methoxyphenyl)pyridine-2-carboxylic acid, methyl ester], the pest or weed control at 140 g/ha in [1], in assay [2] and in [3] was 100% each time. In addition, the pest or weed control at 17.5 g/ha in the assay on Galium aparine amounted to 99%; with Lamium purpureum, 100%; in the assay on Papaver rhoeas it was 99%; in the assay on Veronica persica, 60%; in the assay on barley (Hordeum vulare) it was 0%. The plant injury at 17.5 g/ha in assay [4] amounted to 0%.
